In brackets after ≈: the same amount, converted by molar mass. Where two headings read alike, the source gives them in different places.
Assays:
[1] = tested on: Enterococcus faecium (VanA VRE, ATCC BAA-2317); assay: Antimicrobial assay, MIC, VanA E. faecium; format: cell-based; conditions: for MIC: Enterococcus faecium
Procedure: (§1) Assays were carried out following the methods of Clinical and Laboratory Standards Institute; Methods for Dilution Antimicrobial Susceptibility Tests for Bacteria That Grow Aerobically; Approved Standard, […].; CLSI document M07-A8; Clinical and Laboratory Standards Institute: Wayne, Pa., 2009.
(§2) This diluted bacterial stock solution was then inoculated into a well of a V-shaped 96-well glass coated microtiter plate, supplemented with serial diluted aliquots of the antibiotic solution DMSO (4 μL), to achieve a total assay volume of 0.1 mL. The plate was then incubated at 37° C. for 18 hours, after which minimal inhibitory concentrations (MICs) were determined by monitoring the cell growth (observed as a pellet) in the wells. The lowest concentration of antibiotic (in μg/mL) capable of eliminating the cell growth in the wells is reported as the MIC.

[2] = tested on: vancomycin-resistant Enterococcus faecalis (VanB VRE, strain ATCC 51299); assay: microbe, parasite or virus in culture; format: cell-based; conditions: for MIC: Enterococcus faecalis
Procedure: as §1, §2

[3] = tested on: vancomycin-resistant Enterococcus faecalis (VanA VRE, BM4166); assay: microbe, parasite or virus in culture; format: cell-based; conditions: for MIC: Enterococcus faecalis, VRE
Procedure: as §1, §2

VanA VRE = assay: Antimicrobial assay, MIC for VanA VRE; format: cell-based, E. faecalis and E. faecium
Procedure: as §1, §2

[4] = tested on: vancomycin-sensitive strain of E. faecium; conditions: Kahne et al., Chem. Rev. 2005; cited from earlier work
VSSA and MRSA = assay: Antimicrobial assay, MIC for VSSA and MRSA together; format: cell-based, S. aureus
Procedure: as §1, §2

[5] = tested on: vancomycin-resistant strain of E. faecium; assay: MIC reported by Kahne et al., vancomycin-resistant E. faecium; format: cell-based; conditions: Kahne data
[6] = tested on: methicillin and oxacillin-resistant Staphylococcus aureus subsp. aureus (MRSA strain ATCC 43300); assay: Antimicrobial assay, MIC, MRSA; format: cell-based; conditions: for MIC: Staphylococcus aureus
Procedure: as §1, §2

[7] = tested on: vancomycin-sensitive Staphylococcus aureus (VSSA strain ATCC 25923); assay: Antimicrobial assay, MIC, vancomycin-sensitive S. aureus; format: cell-based; conditions: for MIC: Staphylococcus aureus
Procedure: as §1, §2

[8] = tested on: vancomycin-resistant strain of E. faecium; conditions: Kahne et al., Chem. Rev. 2005; cited from earlier work
[9] = relative to D-Ala-D-Ala; cited from earlier work

CN[C@H](CC(C)C)C(=O)N[C@H]1C(=O)N[C@@H](CC(N)=O)C(=O)N[C@H]2C(=O)NC3C(=O)N[C@H](C(=O)N[C@H](C(=O)O)c4cc(O)cc(O)c4-c4cc3ccc4O)[C@H](O)c3ccc(c(Cl)c3)Oc3cc2cc(c3OC2OC(CO)C(O)[C@H](O)[C@@H]2O[C@H]2CC(C)(NCc3ccc(-c4ccc(Cl)cc4)cc3)[C@H](O)[C@H](C)O2)Oc2ccc(cc2Cl)[C@H]1O (stereo partly drawn) [Compound 4, N-4-(4′-chlorobiphenyl)methyl vancomycin, reference compound]
MIC ([1]; read-out: MIC, Van A E. faecium, serum concentration 10%): 2.5 µg/mL (≈ 1.52 µM)
MIC ([1]; read-out: MIC, Van A E. faecium, serum concentration 25%): 5 µg/mL (≈ 3.03 µM)
MIC ([1]; read-out: MIC, Van A E. faecium, serum concentration 100%): 5 µg/mL (≈ 3.03 µM)
MIC ([1]; read-out: MIC, VanA E. faecium): 2.5 µg/mL (≈ 1.52 µM)
MIC ([2]; read-out: MIC, Van B E. faecalis, serum concentration 10%): 0.03 µg/mL (≈ 0.0182 µM)
MIC ([2]; read-out: MIC, Van B E. faecalis, serum concentration 25%): 0.06 µg/mL (≈ 0.0364 µM)
MIC ([2]; read-out: MIC, Van B E. faecalis, serum concentration 100%): 0.06 µg/mL (≈ 0.0364 µM)
MIC ([2]; read-out: MIC, VanB E. faecalis): 0.03 µg/mL (≈ 0.0182 µM)
MIC ([3]; read-out: MIC, Van A E. faecalis, serum concentration 10%): 2.5 µg/mL (≈ 1.52 µM)
MIC ([3]; read-out: MIC, Van A E. faecalis, serum concentration 25%): 5 µg/mL (≈ 3.03 µM)
MIC ([3]; read-out: MIC, Van A E. faecalis, serum concentration 100%): 10 µg/mL (≈ 6.06 µM)
MIC ([3]; read-out: MIC, VanA E. faecalis): 2.5 µg/mL (≈ 1.52 µM)
MIC (VanA VRE; Enterococcus, VRE, read-out: MIC against VanA VRE): 2.5 µg/mL (≈ 1.52 µM)
improvement in activity against VanA VRE on introduction of the (4-chlorobiphenyl)methyl group (VanA VRE; relative to the analogue without CBP group): 100 fold
MIC, vancomycin-sensitive strain of E. faecium [4]: 0.03 µg/mL
improvement in activity against VSSA and MRSA on introduction of the (4-chlorobiphenyl)methyl group (VSSA and MRSA; Compound 4 vs Compound 1): 20 fold
MIC (VSSA and MRSA; Staphylococcus aureus, MRSA, read-out: MIC against VSSA and MRSA): 0.03 µg/mL (≈ 0.0182 µM)
resistant strain less sensitive than the sensitive strain [5]: about 500 times
MIC ([6]; read-out: MIC, MRSA S. aureus): 0.03 µg/mL (≈ 0.0182 µM)
MIC ([6]; read-out: MIC, MRSA S. aureus, serum concentration 10%): 0.03 µg/mL (≈ 0.0182 µM)
MIC ([6]; read-out: MIC, MRSA S. aureus, serum concentration 25%): 0.06 µg/mL (≈ 0.0364 µM)
MIC ([6]; read-out: MIC, MRSA S. aureus, serum concentration 100%): 0.06 µg/mL (≈ 0.0364 µM)
MIC ([7]; ATCC25923, read-out: MIC, sensitive S. aureus): 0.03 µg/mL (≈ 0.0182 µM)
MIC ([7]; ATCC25923, read-out: MIC, sensitive S. aureus, serum concentration 10%): 0.03 µg/mL (≈ 0.0182 µM)
MIC ([7]; ATCC25923, read-out: MIC, sensitive S. aureus, serum concentration 25%): 0.03 µg/mL (≈ 0.0182 µM)
MIC ([7]; ATCC25923, read-out: MIC, sensitive S. aureus, serum concentration 100%): 0.06 µg/mL (≈ 0.0364 µM)
MIC, vancomycin-resistant strain of E. faecium [8]: 16 µg/mL

CN[C@H](CC(C)C)C(=O)N[C@H]1C(=O)N[C@@H](CC(N)=O)C(=O)N[C@H]2C(=O)N[C@H]3C(=O)N[C@H](C(=O)N[C@H](C(=O)O)c4cc(O)cc(O)c4-c4cc3ccc4O)[C@H](O)c3ccc(c(Cl)c3)Oc3cc2cc(c3O[C@@H]2O[C@H](CO)[C@@H](O)[C@H](O)[C@H]2O[C@H]2C[C@](C)(N)[C@H](O)[C@H](C)O2)Oc2ccc(cc2Cl)[C@H]1O [Compound 1, vancomycin, reference compound]
MIC, VanA E. faecium ([1]; ATCC BAA-2317): 250 µg/mL (≈ 173 µM)
MIC, Van A E. faecium, serum concentration 10% ([1]; ATCC BAA-2317, 10%): 250 µg/mL (≈ 173 µM)
MIC, Van A E. faecium, serum concentration 25% ([1]; ATCC BAA-2317, 25%): 250 µg/mL (≈ 173 µM)
MIC, Van A E. faecium, serum concentration 100% ([1]; ATCC BAA-2317, 100%): 500 µg/mL (≈ 345 µM)
MIC, VanB E. faecalis ([2]; ATCC 51299): 8 µg/mL (≈ 5.52 µM)
MIC, Van B E. faecalis, serum concentration 10% ([2]; ATCC 51299, 10%): 4 µg/mL (≈ 2.76 µM)
MIC, Van B E. faecalis, serum concentration 25% ([2]; ATCC 51299, 25%): 8 µg/mL (≈ 5.52 µM)
MIC, Van B E. faecalis, serum concentration 100% ([2]; ATCC 51299, 100%): 32 µg/mL (≈ 22.1 µM)
MIC, VanA E. faecalis ([3]; BM 4166): 250 µg/mL (≈ 173 µM)
MIC, Van A E. faecalis, serum concentration 10% ([3]; BM 4166, 10%): 250 µg/mL (≈ 173 µM)
MIC, Van A E. faecalis, serum concentration 25% ([3]; BM 4166, 25%): 250 µg/mL (≈ 173 µM)
MIC, Van A E. faecalis, serum concentration 100% ([3]; BM 4166, 100%): 500 µg/mL (≈ 345 µM)
MIC against VanA VRE (VanA VRE; stated for VanA VRE): 250 µg/mL (≈ 173 µM)
MIC, vancomycin-sensitive strain of E. faecium [4]: 1 µg/mL
MIC against VSSA and MRSA (VSSA and MRSA; one value stated for both strains): 0.5 µg/mL (≈ 0.345 µM)
MIC, MRSA S. aureus ([6]; ATCC 43300): 0.5 µg/mL (≈ 0.345 µM)
MIC, MRSA S. aureus, serum concentration 10% ([6]; ATCC 43300, 10%): 0.5 µg/mL (≈ 0.345 µM)
MIC, MRSA S. aureus, serum concentration 25% ([6]; ATCC 43300, 25%): 0.5 µg/mL (≈ 0.345 µM)
MIC, MRSA S. aureus, serum concentration 100% ([6]; ATCC 43300, 100%): 1 µg/mL (≈ 0.69 µM)
MIC, sensitive S. aureus ([7]; ATCC 25923): 0.5 µg/mL (≈ 0.345 µM)
MIC, sensitive S. aureus, serum concentration 10% ([7]; ATCC 25923, 10%): 0.5 µg/mL (≈ 0.345 µM)
MIC, sensitive S. aureus, serum concentration 25% ([7]; ATCC 25923, 25%): 0.5 µg/mL (≈ 0.345 µM)
MIC, sensitive S. aureus, serum concentration 100% ([7]; ATCC 25923, 100%): 0.5 µg/mL (≈ 0.345 µM)
reduction of binding affinity for the altered ligand D-Ala-D-Lac [9]: 1000 fold
